Measurements taken from patent EP0457381B1, “Delta 2-cephem sulphones” (PHARMACIA S.p.A., priority 1990, dated 1991).

Target: T1, human leukocyte elastase (HLE) (Homo sapiens, UniProt P08246)
T1 construct: purchased Calbiochem
T1 sequence (P08246 30-267): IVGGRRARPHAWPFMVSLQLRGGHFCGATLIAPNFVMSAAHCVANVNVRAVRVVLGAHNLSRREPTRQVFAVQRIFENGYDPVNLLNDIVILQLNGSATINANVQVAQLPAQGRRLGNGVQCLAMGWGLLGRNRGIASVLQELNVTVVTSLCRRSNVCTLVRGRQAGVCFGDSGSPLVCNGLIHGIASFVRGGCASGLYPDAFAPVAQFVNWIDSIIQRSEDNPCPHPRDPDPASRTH
Assay: Kinetic parameters of HLE inhibition, fluorogenic substrate N-methoxysuccinyl-alanyl-alanyl-prolyl-valyl-7-amido-4-methylcoumarin
Assay type: biochemical
Conditions: HLE (Calbiochem), 37°C, phosphate buffer pH 7.4, I= 0.15, 1% DMSO and 1% MeCN; for Ki: apparent dissociation constant of HLE-inhibitor complex at steady state; for k₅/Ki: rate of formation of HLE-inhibitor complex
Description: The inhibitory activity on human leukocyte elastase (HLE) of Δ-cephem sulphones of the invention, designated as Compound 4 and Compound 5 in Table 1 above, and of the Δ³-cephem sulphone Merck S.&D. L-659,286, which, to our best knowledge, is the most advanced β-lactam product under study as an HLE-inhibitor (Ann. Rev. Resp. Dis. 1988, 137:204; Journal of Cellular Biochemistry 1989, 39:47), was compared as described below.
The reference compound 7α-methoxy-3-(2-methyl-5-oxo-6-hydroxy-2,5-dihydro-1,2,4-triazin-3-yl)thiomethyl-3-cephem-4-pyrrolidine-carboxamide-1,1-dioxide (Merck's code-name; L-659,286) was synthesized in our laboratories from 7-amino-3-desacetoxy-cephalosporanic acid. Its structural identity and purity (≥95%) was confirmed by spectral and analytical data.
The kinetic parameters of HLE (Calbiochem) inhibition were determined at 37°C in phosphate buffer (pH 7.4, I= 0.15) with 1% DMSO and 1% MeCN as solubilizing vehicles, monitoring fluorometrically (λex= 383 nm; λem = 455 nm) the release of 7-amino-4-methylcoumarin from the fluorogenic substrate N-methoxysuccinyl-alanyl-alanyl-prolyl-valyl-7-amido-4-methylcoumarin. Best fit to the progress curves was obtained by a two-step mechanism (mechanism B in J.F. Morrison, TIBS 1982, 7:102; see also J.F. Morrison and C.T. Walsh, Advances in Enzymology, vol. 61, A. Meister editor, John Wiley & Sons 1988): [drawing 9] Product release versus time was analysed using the following function: [P] = vs t + (vi -vs (1-e)^-kt )/k [formula] wherein [P] = product concentration, vs = steady state rate, vi = initial rate of product release and k = k6 + (k5 /Ki )([I])/(1 + [S]/Km + [I]/Ki); Ki = k4 /k3 [formula] wherein [I] and [S] = inhibitor and substrate concentration, and Km = Michaelis constant for the enzymesubstrate pair (independently determined under the same experimental conditions). At steady state, inhibition is fully determined by the steady-state inhibition constant Ki* (steady state): Ki * = Ki (k6)/(k5 + k6) [formula]

| Compound | Ki [nM] | k₅/Ki |
| --- | --- | --- |
| COC(=O)C1(/C=C\C(=O)OC(C)(C)C)C(C)=CS(=O)(=O)[C@@H]2[C@@H](Cl)C(=O)N21 (stereo partly drawn) [Compound 4, Methyl 7α-chloro-4-[(Z)-2-tert-butoxycarbonylethenyl]-3-methyl-2-cephem-4-carboxylate-1,1-dioxide] | 64 | k₅/Ki = 7,200 M⁻¹s⁻¹ |
| CO[C@H]1C(=O)N2C(C(=O)N3CCCC3)=C(CSc3nc(=O)c(O)nn3C)CS(=O)(=O)[C@H]12 [Reference compound, 7α-methoxy-3-(2-methyl-5-oxo-6-hydroxy-2,5-dihydro-1,2,4-triazin-3-yl)thiomethyl-3-cephem-4-pyrrolidine-carboxamide-1,1-dioxide, reference compound] | 140 | k₅/Ki = 8,000 M⁻¹s⁻¹ |
| COC(=O)C1(C=CC(=O)OC(C)(C)C)C(C)=C(/C=C/C(=O)OC(C)(C)C)S(=O)(=O)[C@@H]2[C@@H](Cl)C(=O)N21 (stereo partly drawn) [Compound 5, Methyl-7α-Chloro-2,4-bis[2-tert-butoxycarbonylethenyl]-3-methyl-2-cephem-4-carboxylate-1,1-dioxide] | 5.2 |  |
